Test results: patent publication US11633395B2, “Substituted pyrazolo[1,5-a]pyrazines as negative allosteric modulators of group II metabotropic glutamate receptor” (Sumitomo Pharma Co., Ltd., priority 2017, dated 2023)
Blank lines part the entries; values can stand above or below the molecule they belong to.

Experiments:
[1] = target: human mGlu2 receptor (Homo sapiens (Human), UniProt Q14416); assay: Assessment of mGlu2 receptor negative allosteric modulator activity in human mGlu2 receptor stable expressing cells (aequorin luminescence, EC80 glutamate); format: cell-based; details: human mGlu2 receptor stable expressing HEK cells; compound added 120 seconds before EC80 glutamate; luminescence (RLU); read-out: mGluR2 NAM IC50 (nM) or inhibition rate (%)
Description: Test 1: Assessment with Human mGlu2 Receptor Stable Expressing Cells
(1) Human mGlu2 Receptor Stable Expressing Cells
Human mGlu2 receptor stable expressing cells were prepared, and used for incubation. Specifically, human mGlu2 receptor gene was inserted into pcDNA4/TO (K1020-01, Life technologies, Carlsbad, Calif., USA), and introduced into TR-expressed human kidney-derived HEK cells (cat #CCL-82.2, ATCC, USA), followed by screening with Geneticin (cat #10131-027, Life technologies, Carlsbad, Calif., USA), to obtain human mGlu2 receptor stable expressing cells.
High glucose-DMEM media (cat #11995-065, Life technologies, Carlsbad, Calif., USA) containing 10% Dialysed-FBS (cat #26400-044, Life technologies, Carlsbad, Calif., USA), 50 μg/mL Blasticidin S (cat #ANT-BL-1, Life technologies, Carlsbad, Calif., USA), and 2 mg/mL G418 (cat #16513-84, nacalai tesque, Kyoto, Japan) were used for incubation on flasks for cell culture (cat #3133-150, AGC Thechno Glass, Shizuoka, Japan). During the incubation, cells were recovered by the treatment with TrypLE Express (cat #12604-013, Life technologies, Carlsbad, Calif., USA), followed by subculture, every three to four days.
Cells were recovered by an about 80% confluency in the treatment with TrypLE Express three to four days after the subculture, transiently transfected with Ga16, apoaequorin, in media of Hanks (cat #14065-056, Life technologies, Carlsbad, Calif., USA)/20 mmol/L HEPES (cat #15630-080, Life technologies, Carlsbad, Calif., USA) Buffer (pH 7.4) containing 0.1% BSA (cat #12604-013, Life technologies, Carlsbad, Calif., USA) and 0.1 μg/mL Tetracycline (cat #33031-64, nacalai tesque, Kyoto, Japan), and then seeded on a 384-well plate (cat #781090, Greiner bio-one, Frickenhausen, Germany) in 1,500 cells/30 μL/well.
Coelentetrazine h (cat #S2011, Promega, Madison, Wis., USA) was added to the plate (10 μl/well) so as to be a final concentration of 1 μmol/L on the day after the seeding, and let stand for 4 hours or more at room temperature after centrifugation.
(2) Preparation of Test Compounds
A test compound was dissolved in DMSO so as to be a concentration 1000 times higher than the assessment concentration. This DMSO solution was diluted with a medium (Hanks, 20 mmol/L HEPES, 0.1% BSA) to a concentration 6 times higher than the assessment concentration. Glutamate was diluted with Hanks/20 mmol/L HEPES/0.1% BSA medium to a concentration 6 times higher than EC80 concentration.
(3) Assessment of mGlu2 Receptor Negative Allosteric Modulator Activity
Human mGlu2 receptor stable expressing cells were prepared and incubated. Luminescence signals by mGlu2 receptor stimulation were detected with FDSS7000 (Hamamatsu Photonics). The compound solution prepared above was added to a plate where cells and luminescent substrates were added (10 μl/well). After 120 seconds of the addition, EC80 Glutamate-containing solution was added thereto (10 μl/well), and luminescence signals were measured for 300 seconds after the addition (center wavelength: 465 nm) for calculation of RLU (Integration). mGlu2 receptor negative allosteric modulator activity of a compound was calculated by (100-100×(RLU of each compound and concentration)/(RLU of DMSO group)).
The present compound was assessed with the above biological test, and the compounds with mGlu2 receptor negative allosteric modulator activity were found out. mGlu2 receptor negative allosteric modulator activity (IC50 value (nmol/L)) for each compound is shown in the following table.

[2] = target: CYP3A4 (Homo sapiens (Human), UniProt P08684); assay: Assessment of MBI and enzyme inactivation clearance against CYP3A4 (human liver microsomes, midazolam or testosterone as substrate); format: in vitro ADME; details: for microsomal CLint: probe midazolam or testosterone, CYP3A4, human liver microsomes, CLint = kinact/KI x CYP contents; for CYP3A4 MBI: shift in IC50 values due to preincubation with NADPH, human liver microsomes, MBI potential when 2-fold or more, N.D. = Not Detected
Description: Test 4: Assessment of MBT and Enzyme Inactivation Clearance Against CYP3A4
Cytochrome P450 (hereinafter called CYP) is the most important enzyme group associated with drug metabolism, and most of pharmacokinetic interactions are based on the inhibition of the CYP activities. CYP includes multiple molecular species. In particular, CYP3A4 is most involved in drug metabolism in oxidation reaction with CYP, and accounts for a major portion of CYPs existing in the liver.
CYP inhibition is generally divided into two types consisting of “reversible inhibition” and “irreversible inhibition (mechanism-based inhibition: MBI)”. In particular, CYP inhibition based on the MBI is known to have a possibility to cause severe side effects such as hepatotoxicity as well as drug-drug interactions (Curr Opin Drug Discov Devel. 2010 January, 13(1), 66-77, Therapeutics and Clinical Risk Management, 2005, 1(1), 3-13).
MBI and enzyme inactivation clearance against CYP3A4 were evaluated for example compounds.
Inhibition effects and inhibition types of test compounds to CYP3A4 were evaluated using human liver microsomes as an enzyme source and midazolam or testosterone as a substrate of CYP3A4. After metabolic reaction for 30 minutes at 37° C., metabolites of CYP3A4 substrate in the presence or absence of a test compound (at 4 concentrations) were measured by LC-MS/MS, and the inhibition rates were calculated from the ratios of peak area. IC50 values were calculated from plots of test compound concentrations. It was known that when a test compound has MBI potential, IC50 value is lowered by starting metabolic reactions after preincubation in the presence of NADPH (cofactor). Therefore, it was determined that there was MBI potential when the shift in IC50 values due to preincubation was 2-fold or more (Xenobiotica, 2009, 39(2), 99-112).
When MBI potential was determined, kinact (maximum inactivation rate constant) and KI (inactivator concentration yielding a measured inactivation rate at half of kinact) were calculated by the non-linear least-squares method. Enzyme inactivation clearance was calculated according to the method described in Drug Metabolism and Disposition, 2011, 39(7), 1247-1254 (CLint=kinact/KI([…])×CYP contents (pmol/mg protein)).

Chain of human mGlu2 receptor (Q14416 19-872): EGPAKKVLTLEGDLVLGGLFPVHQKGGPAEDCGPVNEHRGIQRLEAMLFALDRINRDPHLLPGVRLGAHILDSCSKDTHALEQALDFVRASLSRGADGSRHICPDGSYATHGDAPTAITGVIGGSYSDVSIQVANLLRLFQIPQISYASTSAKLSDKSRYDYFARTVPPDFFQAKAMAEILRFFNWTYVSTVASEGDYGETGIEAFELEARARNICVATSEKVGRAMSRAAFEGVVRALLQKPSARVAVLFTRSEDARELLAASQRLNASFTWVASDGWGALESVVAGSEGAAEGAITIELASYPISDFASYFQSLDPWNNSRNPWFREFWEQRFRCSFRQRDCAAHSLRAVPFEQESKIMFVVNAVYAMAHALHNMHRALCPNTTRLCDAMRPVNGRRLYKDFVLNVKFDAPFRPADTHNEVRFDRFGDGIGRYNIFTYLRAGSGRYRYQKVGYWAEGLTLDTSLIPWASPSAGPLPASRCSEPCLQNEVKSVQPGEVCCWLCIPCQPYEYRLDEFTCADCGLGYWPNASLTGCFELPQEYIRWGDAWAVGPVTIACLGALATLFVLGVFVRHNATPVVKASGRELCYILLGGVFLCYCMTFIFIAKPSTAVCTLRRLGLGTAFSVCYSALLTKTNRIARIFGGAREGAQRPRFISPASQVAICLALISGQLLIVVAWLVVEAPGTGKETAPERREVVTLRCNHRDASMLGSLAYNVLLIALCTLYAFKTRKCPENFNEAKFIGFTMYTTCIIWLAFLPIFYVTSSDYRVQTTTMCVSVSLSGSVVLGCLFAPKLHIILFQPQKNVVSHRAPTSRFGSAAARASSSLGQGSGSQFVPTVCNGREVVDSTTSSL
Chain of CYP3A4 (P08684 whole entry): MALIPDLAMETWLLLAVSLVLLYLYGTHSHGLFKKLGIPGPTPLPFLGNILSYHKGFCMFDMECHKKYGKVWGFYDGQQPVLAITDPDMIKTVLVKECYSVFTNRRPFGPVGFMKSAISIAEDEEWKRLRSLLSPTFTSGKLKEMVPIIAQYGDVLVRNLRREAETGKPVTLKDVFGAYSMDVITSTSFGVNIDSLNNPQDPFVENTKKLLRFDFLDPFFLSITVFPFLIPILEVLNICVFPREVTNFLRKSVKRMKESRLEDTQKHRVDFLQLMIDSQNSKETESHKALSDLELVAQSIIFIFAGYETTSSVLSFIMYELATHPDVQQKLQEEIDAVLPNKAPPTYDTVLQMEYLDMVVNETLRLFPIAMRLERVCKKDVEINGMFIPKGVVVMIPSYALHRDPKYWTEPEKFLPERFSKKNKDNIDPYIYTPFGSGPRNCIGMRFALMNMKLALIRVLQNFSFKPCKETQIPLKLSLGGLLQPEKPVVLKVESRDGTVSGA

Compound: C[C@H]1CN(c2ccc(C(F)(F)F)cc2)C(=O)c2c(-c3ccc4nccn4c3)cnn21 [Example 1, (7S)-3-(imidazo[1,2-a]pyridin-6-yl)-7-methyl-5-[4-(trifluoromethyl)phenyl]-6,7-dihydropyrazolo[1,5-a]pyrazin-4(5H)-one]
IC50 [1]: 18 nM

Compound: C[C@H]1CN(c2ccc(F)c(Cl)c2)C(=O)c2c(-c3ccc4nccn4c3)cnn21 [Example 3, (7S)-5-(3-chloro-4-fluorophenyl)-3-(imidazo[1,2-a]pyridin-6-yl)-7-methyl-6,7-dihydropyrazolo[1,5-a]pyrazin-4 (5H)-one]
IC50 [1]: 23 nM

Compound: C[C@H]1CN(c2ccc(C(F)F)cc2)C(=O)c2c(-c3ccc4nccn4c3)cnn21 [Example 4, (7S)-5-[4-(difluoromethyl)phenyl]-3-(imidazo[1,2-a]pyridin-6-yl)-7-methyl-6,7-dihydropyrazolo[1,5-a]pyrazin-4(5H)-one]
IC50 [1]: 33 nM

Compound: C[C@H]1CN(c2ccc3c(c2)OC(F)(F)O3)C(=O)c2c(-c3ccc4nccn4c3)cnn21 [Example 8, (7S)-5-(2,2-difluoro-1,3-benzodioxol-5-yl)-3-(imidazo[1,2-a]pyridin-6-yl)-7-methyl-6,7-dihydropyrazolo[1,5-a]pyrazin-4(5H)-one]
microsomal CLint [2]: 0.601 µL/min/mg | CYP3A4 MBI [2]: 2.2

Compound: C[C@H]1CN(c2ccc(OC(F)F)cc2)C(=O)c2c(-c3ccc4nccn4c3)cnn21 [Example 9, (7S)-5-[4-(difluoromethoxy)phenyl]-3-(imidazo[1,2-a]pyridin-6-yl)-7-methyl-6,7-dihydropyrazolo[1,5-a]pyrazin-4(5H)-one]
IC50 [1]: 61 nM

Compound: C[C@H]1CN(c2ccc(C(F)(F)F)cc2)C(=O)c2c(-c3ccc4nc(N)cn4c3)cnn21 [Example 10, (7S)-3-(2-aminoimidazo[1,2-a]pyridin-6-yl)-7-methyl-5-[4-(trifluoromethyl)phenyl]-6,7-dihydropyrazolo[1,5-a]pyrazin-4(5H)-one]
IC50 [1]: 302 nM

Compound: C[C@H]1CN(c2ccc(C(F)(F)F)cc2)C(=O)c2c(-c3ccc4ncc(N)n4c3)cnn21 [Example 11, (7S)-3-(3-aminoimidazo[1,2-a]pyridin-6-yl)-7-methyl-5-[4-(trifluoromethyl)phenyl]-6,7-dihydropyrazolo[1,5-a]pyrazin-4(5H)-one]
IC50 [1]: 78 nM

Compound: C[C@H]1CN(c2ccc(C(F)(F)F)cn2)C(=O)c2c(-c3ccc4nccn4c3)cnn21 [Example 12, (7S)-3-(imidazo[1,2-a]pyridin-6-yl)-7-methyl-5-[5-(trifluoromethyl)pyridin-2-yl]-6,7-dihydropyrazolo[1,5-a]pyrazin-4(5H)-one]
microsomal CLint [2]: 0.159 µL/min/mg | CYP3A4 MBI [2]: 2.2

Compound: Cc1cc(N2C[C@H](C)n3ncc(-c4ccc5nccn5c4)c3C2=O)ccc1F [Example 17, (7S)-5-(4-fluoro-3-methylphenyl)-3-(imidazo[1,2-a]pyridin-6-yl)-7-methyl-6,7-dihydropyrazolo[1,5-a]pyrazin-4(5H)-one]
IC50 [1]: 17 nM | microsomal CLint [2]: 1.94 µL/min/mg | CYP3A4 MBI [2]: 3.2

Second part, the molecule after the results:

IC50 [1]: 11 nM
Compound: C[C@H]1CN(c2ccc(C(F)(F)F)cc2)C(=O)c2c(-c3cn4ccnc4cn3)cnn21 [Example 2, (7S)-3-(imidazo[1,2-a]pyrazin-6-yl)-7-methyl-5-[4-(trifluoromethyl)phenyl]-6,7-dihydropyrazolo[1,5-a]pyrazin-4(5H)-one]

IC50 [1]: 11 nM | microsomal CLint [2]: 2.15 µL/min/mg | CYP3A4 MBI [2]: 4.5
Compound: C[C@H]1CN(c2ccc(Cl)s2)C(=O)c2c(-c3ccc4nccn4c3)cnn21 [Example 7, (7S)-5-(5-chlorothiophen-2-yl)-3-(imidazo[1,2-a]pyridin-6-yl)-7-methyl-6,7-dihydropyrazolo[1,5-a]pyrazin-4(5H)-one]

IC50 [1]: 7.9 nM
Compound: C[C@H]1CN(c2ccc(C(F)(F)F)cc2)C(=O)c2c(-c3ccc4ncc(F)n4c3)cnn21 [Example 13, (7S)-3-(3-fluoroimidazo[1,2-a]pyridin-6-yl)-7-methyl-5-[4-(trifluoromethyl)phenyl]-6,7-dihydropyrazolo[1,5-a]pyrazin-4(5H)-one]

IC50 [1]: 13 nM
Compound: CCCc1cnc2ccc(-c3cnn4c3C(=O)N(c3ccc(C(F)(F)F)cc3)C[C@@H]4C)cn12 [Example 16, (7S)-7-methyl-3-(3-propylimidazo[1,2-a]pyridin-6-yl)-5-[4-(trifluoromethyl)phenyl]-6,7-dihydropyrazolo[1,5-a]pyrazin-4(5H)-one]

IC50 [1]: 6.9 nM
Compound: Cc1cc(N2C[C@H](C)n3ncc(-c4ccc5ncc(F)n5c4)c3C2=O)ccc1F [Example 18, (7S)-3-(3-fluoroimidazo[1,2-a]pyridin-6-yl)-5-(4-fluoro-3-methylphenyl)-7-methyl-6,7-dihydropyrazolo[1,5-a]pyrazin-4(5H)-one]
